We go through 1 molecule from patent publication US20130261045A1, “GREEN TEA POLYPHENOL ALPHA SECRETASE ENHANCERS AND METHODS OF USE” (UNIVERSITY OF SOUTH FLORIDA, priority 2005, published 2013).

Holding throughout (assay type): cell-based, murine
In assay [1] the test system is Aβ1-40 and Aβ1-42. Nature of the assay: Aβ1-40/Aβ1-42 ELISA, conditioned media of SweAPP N2a cells (Examples 6-7, with or without siRNA knock-down). Conditions: various doses of EGCG, 8 h. The source says: FIGS. 8A-8H show EGCG-induced ADAM10 activation correlates with APP α-secretase cleavage in vitro. […] Data were represented as % change relative to control (medium from cultured SweAPP N2a cells or primary neuronal cells without any treatment).
FIGS. 10A-10C show ADAM10 is required for EGCG-induced APP α-secretase cleavage. […] In FIG. 10A, cell lysates were subjected to WB for APP CTFs and ADAM10 cleavage analyses. […] In FIG. 10B, cell culture media were subjected to WB for sAPP-α secretion. […] In FIG. 10C, cell culture media were subjected to Aβ ELISA. Data are represented as % change relative to control (medium from cultured SweAPP N2a cells without any treatment). […]
Conditioned media were collected and analyzed at a 1:1 dilution using the method as previously described (Tan et al., 2002) and values were reported as percentage of Aβ1-x secreted relative to control. Quantitation of total Aβ species was performed according to published methods (Marambaud, P. et al., 2005). […] The optical density of each well was immediately determined by a microplate reader at 450 nm. In addition, Aβ1-40, or Aβ1-42 was separately quantified in these samples using the Aβ1-40 Aβ1-42 ELISA kits (IBL-America, Minneapolis, Minn.) in accordance with the manufacturer's instructions. In all cases, Aβ levels were expressed as a percentage of control (conditioned medium from untreated SWeAPP N2a cells). […]

In assay [2] the test system is ADAM10. The assay is described as follows: Western blot of ADAM10 maturation in parental (non-transfected) N2a cells. Conditions: various doses, 8 h.
Protocol: Cultured cells were lysed in ice-cold lysis buffer described above, and an aliquot corresponding to 50 μg of total protein was electrophoretically separated using 16.5% Tris-tricine gels. Electrophoresed proteins were then transferred to PVDF membranes (Bio-Rad, Richmond, Calif.), washed in ddH2O, and blocked for 1 h at ambient temperature in Tris-buffered saline (TBS; Bio-Rad) containing 5% (w/v) non-fat dry milk. After blocking, membranes were hybridized for 1 h at ambient temperature with various primary antibodies. Membranes were then washed 3 times for 5 min each in ddH2O and incubated for 1 h at ambient temperature with the appropriate HRP-conjugated secondary antibody (1:1,000, Pierce Biotechnology, Inc. Rockford, Ill.). All antibodies were diluted in TBS containing 5% (w/v) of non-fat dry milk. Blots were developed using the luminol reagent (Pierce Biotechnology). Densitometric analysis was done using the Fluor-S MultiImager™ with Quantity One™ software (Bio-Rad). […] Antibodies used for Western blot included: antibody 369 (which recognizes the carboxyl-terminus of APP; 1:1,500), clone 22C11 (against the amino-terminus of APP; 1:1,500), clone 6E10 (against amino acids 1-17 of Aβ; 1:1,500), anti-ADAM9 (1:500), and antibodies against ADAM10 (1:500), ADAM17 (1:500) or actin (1:1,500; as an internal reference control).
In assay [3] the test system is Aβ generation. The assay is described as follows: Aβ ELISA, conditioned media of APP-transfected N2a cells (Example 1). The method, then: Aβ1-40 and 1-42 peptides were analyzed in the conditioned media from SweAPP N2a cells (FIGS. 1A, 1C, 1D) and transgenic APPsw mouse-derived primary neuronal cells (FIG. 1B) by ELISA (n=3 for each condition).
TAPI-1, β and γ-secretase inhibitors were obtained from Calbiochem (San Diego, Calif.). Green tea extract (75% polyphenols) was obtained from the Vitamin Shoppe™ (North Bergen, N.J.).
Cultured cells were lysed in ice-cold-lysis buffer (20 mM Tris, pH 7.5, 150 mM NaCl, 1 mM EDTA, 1 mM EGTA, 1% v/v Triton X-100, 2.5 mM sodium pyropgosphate, 1 mM β-glycerolphosphate, 1 mM Na3VO4, 1 μg/mL leupeptin, 1 mM PMSF) as previously described (Tan et al., 2002). Mouse brains were isolated under sterile conditions on ice and placed in ice-cold lysis buffer. Brains were then sonicated on ice for approximately 3 min, allowed to stand for 15 min at 4° C., and centrifuged at 15,000 rpm for 15 min. Total Aβ1-42 species were detected by acid extraction of brain homogenates in 5 M guanidine buffer (ret), followed by a 1:10 dilution in lysis buffer. Soluble Aβ1-42 was directly detected in cultured cell lysates or brain homogenates prepared with lysis buffer described above by a 1:4 or 1:10 dilution, respectively. Aβ1-42 was quantified in these samples using the Aβ1-42 ELISA kit (BioSource, Camarillo, Calif.) in accordance with the manufacturer's instructions, except that standards included a 0.5 M guanidine buffer.
In order to examine the effects of green tea's components on APP cleavage processing, for a first step, N2a neuroblastoma cells overproducing Aβ were treated with each of the aforementioned components at a wide range of doses. In addition, doses of (+)-catechin hydrate (CH) and gallic acid monohydrate (GAM) were included in the first step.

`O=C(O[C@@H]1Cc2c(O)cc(O)cc2O[C@@H]1c1cc(O)c(O)c(O)c1)c1cc(O)c(O)c(O)c1` [EGCG, (−)-epigallocatechin-3-gallate]: in assay [1], the Aβ1-40 concentration result is recorded as “dose-dependent reductions” and the Aβ1-42 concentration result is recorded as “dose-dependent reductions”. Also, the ADAM10 maturation entry in assay [2] is given as “dose-dependently increased”. For the same molecule, the “reduction of Aβ1-42 generation over control (PBS)” value in assay [3] (20 μM, human APP695-transfected N2a cells, FIG. 1A) came to 60%. The “ability to inhibit Aβ generation, purified EGCG versus same amounts EGCG present in GT mixtures” value in assay [3] (SweAPP N2a cells, equivalent doses, FIG. 1D) is listed as “much greater”.
